The record followed here is ChEMBL document CHEMBL5036339, “Synthesis and biological evaluation of indole-based peptidomimetics as antibacterial agents against Gram-positive bacteria” (Eur J Med Chem, 2021).

In data set [1] the test system is Staphylococcus aureus. Briefly: Antibacterial activity against Staphylococcus aureus ATCC29213 assessed as reduction in bacterial growth. Format: functional.
The test system of data set [2] is Staphylococcus aureus. In words: Antibacterial activity against methicillin-resistant Staphylococcus aureus N315 assessed as reduction in bacterial growth. The format is functional.
Data set [3] concerns Staphylococcus aureus. In words: Antibacterial activity against methicillin-resistant Staphylococcus aureus NCTC 10442 assessed as reduction in bacterial growth. The format is functional.
The next data set relates to Escherichia coli. Briefly: Antibacterial activity against Escherichia coli ATCC25922 assessed as reduction in bacterial growth. The format is functional.
A short description of data set [4]: Hemolytic activity in rabbit erythrocytes assessed as concentration required to cause 50% hemolysis. Format: ADME, cell-based, Oryctolagus cuniculus, Erythrocyte.
For data set [5], the system named is Staphylococcus aureus. In words: Induction of drug resistance in Staphylococcus aureus ATCC29213 assessed as reduction in bacterial growth at 0.5 times MIC measured after 24 hr. Format: functional, organism-based.
Data set [6] deals with Staphylococcus aureus. In words: Bactericidal activity against Staphylococcus aureus NCTC 10442 assessed as log reduction in bacterial growth at 4X MIC measured within 0.5 hr by time-kill kinetic assay. The format is functional. The note with it: time hrs <=0.5.
For data set [7], the system named is Staphylococcus aureus. In words: In vivo antibacterial activity against Staphylococcus aureus ATCC29213 in mouse bacterial keratitis model assessed as log reduction in bacterial load in infected cornea at 5%,TOP after 24 hour infection. Format: functional, organism-based.

Structures are written as SMILES. ≈ marks a conversion by molar mass, not a printed value. Calls of active or inactive are those of the source. The rule behind the calls is not given here.

In the case of `COC(=O)[C@H](Cc1c[nH]cn1)NC(=O)Cc1cn(C/C=C(\C)CCC=C(C)C)c2ccccc12`, the minimum inhibitory concentration (MIC) (commonly the lowest concentration that inhibits growth of the organism) with Staphylococcus aureus [1] is above 50 µg/mL; in the data set with Staphylococcus aureus [2] it was above 50 µg/mL; with Staphylococcus aureus [3], above 50 µg/mL; in the data set on Escherichia coli, above 100 µg/mL. For the same molecule, in data set [4], the HC50 – broadly, the concentration giving 50% haemolysis – was above 200 µg/mL.

On to `COC(=O)[C@H](CCCNC(=N)N)NC(=O)[C@H](CCCNC(=N)N)NC(=O)[C@H](CCCNC(=N)N)NC(=O)Cc1cn(C/C=C(\C)CCC=C(C)C)c2ccccc12`, for which the minimal inhibitory concentration (MIC) with Staphylococcus aureus [1] was 3.12 µg/mL (≈ 3.94 µM); with Staphylococcus aureus [2] it was 1.56 µg/mL (≈ 1.96 µM); in the data set on Staphylococcus aureus [3] it was 1.56 µg/mL (≈ 1.96 µM); with Escherichia coli, 50 µg/mL (≈ 63 µM). Further, the concentration for 50% haemolysis (HC50) in data set [4] is above 200 µg/mL.

`CC(C)=CCC/C(C)=C/Cn1cc(CC(=O)NCCCN(C)C)c2ccccc21`: the MIC in the data set on Staphylococcus aureus [1] is 6.25 µg/mL (≈ 15.8 µM); with Staphylococcus aureus [2] it was 3.12 µg/mL (≈ 7.9 µM); in the data set on Staphylococcus aureus [3], 6.25 µg/mL (≈ 15.8 µM); in the data set on Escherichia coli, 12.5 µg/mL (≈ 31.6 µM). Besides, in data set [4], the HC50 was 55.1 µg/mL.

For `CC(C)=CCn1cc(CC(=O)N[C@@H](CCCNC(=N)N)C(N)=O)c2ccccc21`, the MIC in the data set on Staphylococcus aureus [1] is above 50 µg/mL; in the data set with Staphylococcus aureus [2], above 50 µg/mL; with Staphylococcus aureus [3], above 50 µg/mL; with Escherichia coli it was above 100 µg/mL. In addition, the HC50 in data set [4] is above 200 µg/mL.

For `CC(C)=CCC/C(C)=C/Cn1cc(CC(=O)NCCCNC(=N)N)c2ccccc21`, the MIC in the data set with Staphylococcus aureus [1] was found to be 1.56 µg/mL (≈ 3.81 µM); with Staphylococcus aureus [2], 1.56 µg/mL (≈ 3.81 µM); in the data set on Staphylococcus aureus [3], 1.56 µg/mL (≈ 3.81 µM); in the data set with Escherichia coli, 12.5 µg/mL (≈ 30.5 µM). Further, the concentration for 50% haemolysis (HC50) in data set [4] stood at 733 µg/mL.

In the case of `CC(C)=CCC/C(C)=C/Cn1cc(CC(=O)N[C@@H](CCCNC(=N)N)C(N)=O)c2ccccc21`, the MIC in the data set with Staphylococcus aureus [1] came out at 3.12 µg/mL (≈ 6.7 µM); in the data set on Staphylococcus aureus [2], 3.12 µg/mL (≈ 6.7 µM); with Staphylococcus aureus [3], 3.12 µg/mL (≈ 6.7 µM); in the data set on Escherichia coli it was 25 µg/mL (≈ 53.6 µM). For the same molecule, the HC50 in data set [4] was determined as 119 µg/mL.

Consider `COC(=O)[C@H](CCCNC(=N)N)NC(=O)Cc1cn(C/C=C(\C)CCC=C(C)C)c2ccccc12`, for which the minimum inhibitory concentration (MIC) in the data set on Staphylococcus aureus [1] was determined as 3.12 µg/mL (≈ 6.49 µM); in the data set on Staphylococcus aureus [2] it was 3.12 µg/mL (≈ 6.49 µM); in the data set on Staphylococcus aureus [3] it was 3.12 µg/mL (≈ 6.49 µM); in the data set with Escherichia coli, 12.5 µg/mL (≈ 26 µM). For the same molecule, the HC50 in data set [4] stood at 58.8 µg/mL.

For the molecule `CCn1cc(C(=O)O)c(=O)c2cc(F)c(N3CCNCC3)cc21`, the result in the data set with Staphylococcus aureus [5] was Active.

For `COC(=O)[C@H](CCCNC(=N)N)NC(=O)Cc1cn(CC=C(C)C)c2ccccc12`, the minimal inhibitory concentration (MIC) with Staphylococcus aureus [1] is 50 µg/mL (≈ 121 µM); with Staphylococcus aureus [2] it was 50 µg/mL (≈ 121 µM); in the data set on Staphylococcus aureus [3], 50 µg/mL (≈ 121 µM); in the data set with Escherichia coli, above 100 µg/mL. In addition, in data set [4], the HC50 is above 200 µg/mL.

As for `CC(C)=CCC/C(C)=C/Cn1cc(CC(=O)N[C@@H](CCCNC(=N)N)C(=O)N[C@@H](CCCNC(=N)N)C(N)=O)c2ccccc21`, the minimum inhibitory concentration (MIC) was determined as 3.12 µg/mL (≈ 5.02 µM) with Staphylococcus aureus [1], 3.12 µg/mL (≈ 5.02 µM) in the data set on Staphylococcus aureus [2], 3.12 µg/mL (≈ 5.02 µM) with Staphylococcus aureus [3] and 50 µg/mL (≈ 80.3 µM) in the data set on Escherichia coli. Besides, the concentration for 50% haemolysis (HC50) in data set [4] was above 200 µg/mL.

Consider `CCCCN(CCCC)CCCNC(=O)Cc1cn(C/C=C(\C)CCC=C(C)C)c2ccccc12`, for which the MIC in the data set on Staphylococcus aureus [1] was 3.12 µg/mL (≈ 6.51 µM); in the data set with Staphylococcus aureus [2], 3.12 µg/mL (≈ 6.51 µM); in the data set on Staphylococcus aureus [3] it was 3.12 µg/mL (≈ 6.51 µM); in the data set with Escherichia coli, above 100 µg/mL. In data set [4], the 50% haemolytic concentration (HC50) turned out to be 72.3 µg/mL.

Regarding `CN[C@H](CC(C)C)C(=O)N[C@H]1C(=O)N[C@@H](CC(N)=O)C(=O)N[C@H]2C(=O)N[C@H]3C(=O)N[C@H](C(=O)N[C@H](C(=O)O)c4cc(O)cc(O)c4-c4cc3ccc4O)[C@H](O)c3ccc(c(Cl)c3)Oc3cc2cc(c3O[C@@H]2O[C@H](CO)[C@@H](O)[C@H](O)[C@H]2O[C@H]2C[C@](C)(N)[C@H](O)[C@H](C)O2)Oc2ccc(cc2Cl)[C@H]1O` [VANCOMYCIN], the MIC stood at 0.78 µg/mL (≈ 0.538 µM) in the data set on Staphylococcus aureus [1], 1.56 µg/mL (≈ 1.08 µM) in the data set on Staphylococcus aureus [2] and 1.56 µg/mL (≈ 1.08 µM) in the data set with Staphylococcus aureus [3]. Also, in the data set with Staphylococcus aureus [6], the log reduction was found to be 0.5 log10 CFU/mL. The result in the data set with Staphylococcus aureus [7] was Active.

For `CC(C)=CCC/C(C)=C/Cn1cc(CC(=O)NCCCN2CCCC2)c2ccccc21`, the MIC in the data set on Staphylococcus aureus [1] stood at 6.25 µg/mL (≈ 14.8 µM); with Staphylococcus aureus [2] it was 6.25 µg/mL (≈ 14.8 µM); with Staphylococcus aureus [3] it was 6.25 µg/mL (≈ 14.8 µM); in the data set with Escherichia coli it was 50 µg/mL (≈ 119 µM). In data set [4], the concentration for 50% haemolysis (HC50) turned out to be 47.6 µg/mL.

As to `CCOC(=O)Cc1cn(C/C=C(\C)CCC=C(C)C)c2ccccc12`, the minimum inhibitory concentration (MIC) in the data set with Staphylococcus aureus [1] was above 50 µg/mL; with Staphylococcus aureus [2], above 50 µg/mL; in the data set with Staphylococcus aureus [3], above 50 µg/mL; with Escherichia coli it was above 100 µg/mL. Also, the HC50 in data set [4] is above 200 µg/mL.

On to `CC(C)=CCC/C(C)=C/Cn1cc(CC(=O)NCCCN)c2ccccc21`, for which the MIC in the data set with Staphylococcus aureus [1] was determined as 12.5 µg/mL (≈ 34 µM); in the data set with Staphylococcus aureus [2] it was 6.25 µg/mL (≈ 17 µM); with Staphylococcus aureus [3] it was 12.5 µg/mL (≈ 34 µM); in the data set with Escherichia coli, 12.5 µg/mL (≈ 34 µM). In addition, the HC50 in data set [4] is 178 µg/mL.

Turning to `C=CCCCCCn1cc(CC(=O)NCCN(CCN)CCN)c2ccccc21`, the MIC with Staphylococcus aureus [1] was 12.5 µg/mL (≈ 31.3 µM); with Staphylococcus aureus [2], 12.5 µg/mL (≈ 31.3 µM); in the data set with Staphylococcus aureus [3] it was 25 µg/mL (≈ 62.6 µM); in the data set with Escherichia coli it was above 50 µg/mL. Besides, the HC50 in data set [4] came out at 140 µg/mL.

On to `CCOC(=O)Cc1c[nH]c2ccccc12`, for which the MIC in the data set on Staphylococcus aureus [1] was above 50 µg/mL; with Staphylococcus aureus [2] it was above 50 µg/mL; with Staphylococcus aureus [3], above 50 µg/mL; in the data set on Escherichia coli, above 100 µg/mL. The concentration for 50% haemolysis (HC50) in data set [4] is above 200 µg/mL.

As for `NC[C@H]1O[C@H](O[C@H]2[C@H](O)[C@@H](O[C@H]3O[C@H](CO)[C@@H](O)[C@H](N)[C@H]3O)[C@H](N)C[C@@H]2N)[C@H](O)[C@@H](O)[C@@H]1O` [KANAMYCIN], the minimal inhibitory concentration (MIC) with Escherichia coli amounted to 6.25 µg/mL (≈ 12.9 µM).

For `CCCCCCCCCCn1cc(CC(=O)NCCN(CCN)CCN)c2ccccc21`, the MIC in the data set on Staphylococcus aureus [1] came to 1.56 µg/mL (≈ 3.52 µM); in the data set with Staphylococcus aureus [2], 1.56 µg/mL (≈ 3.52 µM); in the data set on Staphylococcus aureus [3], 1.56 µg/mL (≈ 3.52 µM); in the data set on Escherichia coli, 12.5 µg/mL (≈ 28.2 µM). Besides, the HC50 in data set [4] was 95.9 µg/mL.

`CC(C)=CCn1cc(CC(=O)NCCCN)c2ccccc21`: the MIC in the data set with Staphylococcus aureus [1] is above 50 µg/mL; in the data set on Staphylococcus aureus [2] it was above 50 µg/mL; in the data set with Staphylococcus aureus [3], above 50 µg/mL; with Escherichia coli it was above 100 µg/mL. Moreover, the concentration for 50% haemolysis (HC50) in data set [4] is above 200 µg/mL.

On to `CC(C)=CCC/C(C)=C/Cn1cc(CC(=O)NCCN(CCN)CCN)c2ccccc21`, for which the minimum inhibitory concentration (MIC) in the data set on Staphylococcus aureus [1] is 1.56 µg/mL (≈ 3.55 µM); in the data set with Staphylococcus aureus [2] it was 1.56 µg/mL (≈ 3.55 µM); in the data set with Staphylococcus aureus [3], 1.56 µg/mL (≈ 3.55 µM); with Escherichia coli, 25 µg/mL (≈ 56.9 µM). In data set [4], the HC50 worked out at 208 µg/mL.

In the case of `COC(=O)[C@H](CCCNC(=N)N)NC(=O)[C@H](CCCNC(=N)N)NC(=O)Cc1cn(C/C=C(\C)CCC=C(C)C)c2ccccc12`, the MIC was 3.12 µg/mL (≈ 4.9 µM) with Staphylococcus aureus [1], 3.12 µg/mL (≈ 4.9 µM) in the data set with Staphylococcus aureus [2], 1.56 µg/mL (≈ 2.45 µM) in the data set on Staphylococcus aureus [3] and 50 µg/mL (≈ 78.4 µM) in the data set with Escherichia coli. For the same molecule, the concentration for 50% haemolysis (HC50) in data set [4] is above 200 µg/mL.

In the case of `CC(C)=CCn1cc(CC(=O)NCCCNC(=N)N)c2ccccc21`, the MIC in the data set with Staphylococcus aureus [1] is 50 µg/mL (≈ 146 µM); with Staphylococcus aureus [2], 50 µg/mL (≈ 146 µM); in the data set with Staphylococcus aureus [3], 50 µg/mL (≈ 146 µM); with Escherichia coli, above 100 µg/mL. In addition, in data set [4], the 50% haemolytic concentration (HC50) is above 200 µg/mL.
